The source of these data is patent US20080214576A1, “Topoisomerase Inhibitors and Prodrugs” (Threshold Pharmaceuticals, Inc., priority 2004, published 2008).

Read-outs that look alike come from different tables or passages of the source.

The test system of the assay is H460 cells. Description: Antiproliferation assay (multi-well Alamar Blue based). It is filed as cell-based, human. As to the method:
To determine the effect of the compounds of the invention on cell proliferation, the antiproliferative activity of these compounds was tested in a multi-well Alamar Blue based assay (at 2 h and 3 days). Cell growth in the presence and absence of the test compound was compared, as measured by a fluorescence plate reader at excitation 550 nm and emission 590 nm (see Biosource International Inc., Tech Application Notes, Use of Alamar Blue in the measurement of Cell Viability and Toxicity, Determining IC50). […] After 24 hours, these plates were divided into 3 groups—Control group, 2 h treatment group, and 3 day treatment group. A test compound was added to each plate in the treatment groups (2 h and 3 day) at various concentration (in 50 μl of medium). In the 2 h treatment group, after 2 h the cells were rinsed to remove the test compound and incubated for 3 days, followed by staining with AlamarBlue. The cells in the 3 day treatment group were incubated for 3 days, followed by staining with AlamarBlue. In the Control group, AlamarBlue was added to the plate at (i) day 0 and (ii) day 3 and measured to establish the control reading.
(The colour change of resazurin is a common sign of viable cells or microbes.)

Broadly, the GI50 is the concentration giving 50% growth inhibition. `COc1cc2c(cc1OC)n(CCN(C)C)c(=O)n1c3cc4c(cc3nc21)OCO4` [Compound 14] showed a GI90 (3 day treatment, AlamarBlue, GI90 also referred to as IC90) of 1 µM. Also, the concentration for 50% growth inhibition (GI50) (Homo sapiens, NCI-H460, 72 h, 3 day treatment, AlamarBlue, GI50 also referred to as IC50, read-out: GI50) was determined as 0.6 µM.

Regarding `COc1cc2c(cc1OC)-c1nc3cc4c(cc3n1C(CCCN(C)C)N2)OCO4` (stereo not shown) [Compound 7], under “assay time period not stated”, the GI50 entry was “not determinable” and the GI90 entry is recorded as “not determinable”.
